Target: T1, Dimer of Gag-Pol polyprotein [501-599] (Human immunodeficiency virus 1, UniProt P03367)
T1 construct: 501-599
Assay: Protease Inhibition Assay
Settings: pH 4.7; 30 °C
Description: HIV-1 protease activity was measured by a continuous fluorometric assay using the internally quenched fluorogenic substrate DABCYL-Ser-Gln-Asn-Tyr-Pro-Ile-Val-Gln-EDANS. The proteolytic activity can be monitored by the increase in fluorescence intensity, and the protease products were analyzed by HPLC.

| Structure (SMILES) | Ki |
| --- | --- |
| Cc1ccc(S(=O)(=O)N(CC(C)C)[C@@H](CCCCNC(=O)NCc2ccccn2)C(=O)O)cc1 [(2S)-2-[(4-methylbenzene)(2-methylpropyl)sulfonamido]-6-{[(pyridin-2-ylmethyl)carbamoyl]amino}hexanoic acid] | > 300 nM |
| Cc1ccc(S(=O)(=O)N(CC(C)C)[C@@H](CCCCNC(=O)N(CCc2ccccc2)Cc2ccccc2)C(=O)O)cc1 [(2S)-6-{[benzyl(2-phenylethyl)carbamoyl]amino}-2-[(4-methylbenzene)(2-methylpropyl)sulfonamido]hexanoic acid] | > 300 nM |

From BindingDB's records for doi:10.1016/j.bmcl.2004.05.049 (Procyon Biopharma, 2004)
